The kinase profiling compilation of Christmann-Franck et al. (2016)

Assays:
Assay in all cases: radiometric filter-binding kinase assay
[1] = tested on: AKT2 (human), P31751 [S474D]
AURKA (human) = AURKA (human) (UniProt O14965)
AURKB (human) = AURKB (human) (UniProt Q96GD4)
CHEK1 (human) = CHEK1 (human) (UniProt O14757)
CSNK1D (human) = CSNK1D (human) (UniProt P48730)
EEF2K (human) = EEF2K (human) (UniProt O00418)
EPHB1 (human) = EPHB1 (human) (UniProt P54762)
EPHB4 (human) = EPHB4 (human) (UniProt P54760)
FGFR1 (human) = FGFR1 (human) (UniProt P11362)
FLT1 (human) = FLT1 (human) (UniProt P17948)
GCK (human) = GCK (human) (UniProt Q12851)
GSK3B (human) = GSK3B (human) (UniProt P49841)
HIPK1 (human) = HIPK1 (human) (UniProt Q86Z02)
HIPK2 (human) = HIPK2 (human) (UniProt Q9H2X6)
IGF1R (human) = IGF1R (human) (UniProt P08069)
MAP2K2 (human) = MAP2K2 (human) (UniProt P36507)
MAP3K1 (human) = MAP3K1 (human) (UniProt Q13233)
MAP3K5 (human) = MAP3K5 (human) (UniProt Q99683)
MAP3K9 (human) = MAP3K9 (human) (UniProt P80192)
MAPK1 (human) = MAPK1 (human) (UniProt P28482); conditions: compound 10.0 µM
MAPK10 (human) = MAPK10 (human) (UniProt P53779)
MAPK13 (human) = MAPK13 (human) (UniProt O15264)
MAPK9 (human) = MAPK9 (human) (UniProt P45984)
MARK4 (human) = MARK4 (human) (UniProt Q96L34)
MELK (human) = MELK (human) (UniProt Q14680)
MYLK (human) = MYLK (human) (UniProt Q15746)
[2] = tested on: PAK2 (human), Q13177 [T402E]
PAK6 (human) = PAK6 (human) (UniProt Q9NQU5)
PKN2 (human) = PKN2 (human) (UniProt Q16513)
PRKCZ (human) = PRKCZ (human) (UniProt Q05513)
SRC (human) = SRC (human) (UniProt P12931)
[3] = molecular target: STK11 CAB39 STRADA (human) (UniProt Q9Y376+Q7RTN6+Q15831)
SYK (human) = SYK (human) (UniProt P43405)
TAOK1 (human) = TAOK1 (human) (UniProt Q7L7X3)
TTK (human) = TTK (human) (UniProt P33981)
YES1 (human) = YES1 (human) (UniProt P07947)

Chain of PAK2 (human), Q13177 [T402E] (Q13177 whole entry T402E, looked up): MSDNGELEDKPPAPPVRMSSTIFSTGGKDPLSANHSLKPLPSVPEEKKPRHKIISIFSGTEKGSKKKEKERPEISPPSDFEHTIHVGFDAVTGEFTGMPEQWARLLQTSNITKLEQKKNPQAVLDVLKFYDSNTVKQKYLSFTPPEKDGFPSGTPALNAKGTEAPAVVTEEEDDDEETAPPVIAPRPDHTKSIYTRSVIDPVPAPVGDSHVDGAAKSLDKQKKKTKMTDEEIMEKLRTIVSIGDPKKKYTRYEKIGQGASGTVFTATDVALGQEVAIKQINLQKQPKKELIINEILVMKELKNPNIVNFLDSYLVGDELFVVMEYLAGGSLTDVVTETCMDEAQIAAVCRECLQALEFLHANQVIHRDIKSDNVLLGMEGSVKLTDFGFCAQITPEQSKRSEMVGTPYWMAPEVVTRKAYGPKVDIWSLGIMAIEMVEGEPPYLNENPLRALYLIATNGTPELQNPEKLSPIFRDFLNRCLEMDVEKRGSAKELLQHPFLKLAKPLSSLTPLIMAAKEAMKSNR
Chain of HIPK2 (human) (Q9H2X6 whole entry, looked up): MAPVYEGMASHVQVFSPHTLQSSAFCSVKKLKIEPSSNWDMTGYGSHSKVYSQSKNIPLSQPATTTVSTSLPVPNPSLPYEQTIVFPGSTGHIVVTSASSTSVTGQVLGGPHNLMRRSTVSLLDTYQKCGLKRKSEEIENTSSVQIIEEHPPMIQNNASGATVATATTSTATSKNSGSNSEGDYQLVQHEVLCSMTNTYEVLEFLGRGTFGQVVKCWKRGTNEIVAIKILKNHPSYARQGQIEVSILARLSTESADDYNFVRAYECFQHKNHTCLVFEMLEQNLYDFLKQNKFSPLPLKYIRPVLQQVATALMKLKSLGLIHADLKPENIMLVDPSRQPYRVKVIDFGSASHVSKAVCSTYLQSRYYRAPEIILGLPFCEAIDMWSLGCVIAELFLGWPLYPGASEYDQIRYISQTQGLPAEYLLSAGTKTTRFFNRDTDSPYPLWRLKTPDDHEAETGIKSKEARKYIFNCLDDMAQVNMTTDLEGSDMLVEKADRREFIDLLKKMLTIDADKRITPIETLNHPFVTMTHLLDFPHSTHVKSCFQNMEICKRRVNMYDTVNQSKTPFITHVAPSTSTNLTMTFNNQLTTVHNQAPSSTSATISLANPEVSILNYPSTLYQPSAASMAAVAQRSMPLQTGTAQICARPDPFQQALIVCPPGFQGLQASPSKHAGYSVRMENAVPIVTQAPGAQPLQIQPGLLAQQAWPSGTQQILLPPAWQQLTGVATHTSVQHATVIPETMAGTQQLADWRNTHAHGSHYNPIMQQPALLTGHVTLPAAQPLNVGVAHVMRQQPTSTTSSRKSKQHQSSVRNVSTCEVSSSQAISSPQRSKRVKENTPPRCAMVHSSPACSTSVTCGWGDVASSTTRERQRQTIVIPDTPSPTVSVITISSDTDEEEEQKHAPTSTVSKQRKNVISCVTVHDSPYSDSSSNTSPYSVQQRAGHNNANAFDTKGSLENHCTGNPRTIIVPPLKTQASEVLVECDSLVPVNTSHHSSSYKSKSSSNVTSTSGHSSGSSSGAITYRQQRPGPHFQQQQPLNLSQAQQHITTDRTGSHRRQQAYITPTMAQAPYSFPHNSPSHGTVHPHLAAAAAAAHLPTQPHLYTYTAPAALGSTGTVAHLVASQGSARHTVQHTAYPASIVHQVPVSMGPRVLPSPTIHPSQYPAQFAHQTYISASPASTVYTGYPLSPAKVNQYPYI
Chain of EPHB4 (human) (P54760 whole entry, looked up): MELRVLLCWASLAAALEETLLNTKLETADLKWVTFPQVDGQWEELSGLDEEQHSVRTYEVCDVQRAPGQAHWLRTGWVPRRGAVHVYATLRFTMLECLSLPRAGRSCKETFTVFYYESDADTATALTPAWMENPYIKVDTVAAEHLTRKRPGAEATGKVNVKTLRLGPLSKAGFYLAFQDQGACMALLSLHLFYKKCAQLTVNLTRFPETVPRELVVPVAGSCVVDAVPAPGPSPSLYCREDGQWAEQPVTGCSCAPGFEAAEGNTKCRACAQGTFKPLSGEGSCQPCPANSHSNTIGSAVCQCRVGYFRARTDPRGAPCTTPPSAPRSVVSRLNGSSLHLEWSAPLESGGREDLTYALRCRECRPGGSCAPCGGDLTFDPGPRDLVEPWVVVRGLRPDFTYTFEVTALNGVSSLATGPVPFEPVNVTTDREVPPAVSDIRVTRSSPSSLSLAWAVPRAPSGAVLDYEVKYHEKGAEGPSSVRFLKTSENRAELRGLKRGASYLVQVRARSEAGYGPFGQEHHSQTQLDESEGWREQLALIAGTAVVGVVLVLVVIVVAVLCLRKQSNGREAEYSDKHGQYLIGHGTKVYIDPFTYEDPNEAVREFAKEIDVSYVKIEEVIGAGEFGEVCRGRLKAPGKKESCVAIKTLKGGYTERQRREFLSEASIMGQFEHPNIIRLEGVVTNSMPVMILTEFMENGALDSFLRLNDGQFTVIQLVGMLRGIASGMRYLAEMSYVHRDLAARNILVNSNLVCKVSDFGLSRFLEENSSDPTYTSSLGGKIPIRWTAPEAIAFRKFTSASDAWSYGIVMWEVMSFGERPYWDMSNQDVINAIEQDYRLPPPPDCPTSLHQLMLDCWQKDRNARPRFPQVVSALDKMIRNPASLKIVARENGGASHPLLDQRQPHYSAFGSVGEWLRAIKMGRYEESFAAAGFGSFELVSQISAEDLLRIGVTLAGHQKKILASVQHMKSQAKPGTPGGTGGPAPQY
Chain of MARK4 (human) (Q96L34 whole entry, looked up): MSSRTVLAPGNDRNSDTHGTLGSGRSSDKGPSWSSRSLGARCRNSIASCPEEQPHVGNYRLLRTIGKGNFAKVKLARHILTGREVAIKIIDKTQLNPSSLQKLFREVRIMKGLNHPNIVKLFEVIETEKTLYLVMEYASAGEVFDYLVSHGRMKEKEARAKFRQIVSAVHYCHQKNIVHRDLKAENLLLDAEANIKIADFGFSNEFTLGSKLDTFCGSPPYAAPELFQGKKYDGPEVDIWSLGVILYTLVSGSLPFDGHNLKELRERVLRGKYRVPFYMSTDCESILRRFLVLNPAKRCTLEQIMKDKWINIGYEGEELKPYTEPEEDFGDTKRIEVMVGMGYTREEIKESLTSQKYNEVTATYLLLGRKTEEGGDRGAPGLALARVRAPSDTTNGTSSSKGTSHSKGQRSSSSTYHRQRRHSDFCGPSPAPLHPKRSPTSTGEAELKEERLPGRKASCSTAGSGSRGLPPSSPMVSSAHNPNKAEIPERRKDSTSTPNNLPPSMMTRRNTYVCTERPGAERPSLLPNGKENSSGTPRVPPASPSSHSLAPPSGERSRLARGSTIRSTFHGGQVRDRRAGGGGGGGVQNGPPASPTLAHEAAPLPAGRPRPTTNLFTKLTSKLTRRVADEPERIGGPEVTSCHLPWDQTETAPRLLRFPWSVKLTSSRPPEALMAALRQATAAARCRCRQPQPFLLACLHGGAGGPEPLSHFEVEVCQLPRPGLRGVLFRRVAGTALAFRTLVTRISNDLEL
Chain of EPHB1 (human) (P54762 whole entry, looked up): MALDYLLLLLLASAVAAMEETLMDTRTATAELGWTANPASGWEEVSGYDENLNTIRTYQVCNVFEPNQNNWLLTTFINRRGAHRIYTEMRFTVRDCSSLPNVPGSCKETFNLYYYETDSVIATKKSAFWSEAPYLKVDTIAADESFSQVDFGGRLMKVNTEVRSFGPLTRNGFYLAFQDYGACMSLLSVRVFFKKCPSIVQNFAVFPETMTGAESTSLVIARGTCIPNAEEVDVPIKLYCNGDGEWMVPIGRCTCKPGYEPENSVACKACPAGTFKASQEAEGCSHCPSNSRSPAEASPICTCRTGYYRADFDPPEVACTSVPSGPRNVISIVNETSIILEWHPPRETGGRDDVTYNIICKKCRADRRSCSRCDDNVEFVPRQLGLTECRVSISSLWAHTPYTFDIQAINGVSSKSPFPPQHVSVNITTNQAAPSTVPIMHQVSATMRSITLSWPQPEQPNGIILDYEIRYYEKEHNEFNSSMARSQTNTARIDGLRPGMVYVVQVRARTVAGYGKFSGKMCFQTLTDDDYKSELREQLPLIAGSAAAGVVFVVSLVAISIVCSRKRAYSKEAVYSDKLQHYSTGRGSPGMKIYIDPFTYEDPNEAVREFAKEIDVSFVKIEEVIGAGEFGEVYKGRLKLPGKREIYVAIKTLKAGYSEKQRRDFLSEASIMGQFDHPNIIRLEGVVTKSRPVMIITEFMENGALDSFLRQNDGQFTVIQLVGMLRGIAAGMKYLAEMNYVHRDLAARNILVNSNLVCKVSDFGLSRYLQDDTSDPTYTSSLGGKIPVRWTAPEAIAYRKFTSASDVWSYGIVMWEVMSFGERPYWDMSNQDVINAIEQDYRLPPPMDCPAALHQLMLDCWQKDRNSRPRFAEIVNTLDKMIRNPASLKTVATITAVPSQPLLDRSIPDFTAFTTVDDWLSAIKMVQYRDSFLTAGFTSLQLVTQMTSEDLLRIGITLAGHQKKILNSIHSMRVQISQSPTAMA
Chain of CHEK1 (human) (O14757 whole entry, looked up): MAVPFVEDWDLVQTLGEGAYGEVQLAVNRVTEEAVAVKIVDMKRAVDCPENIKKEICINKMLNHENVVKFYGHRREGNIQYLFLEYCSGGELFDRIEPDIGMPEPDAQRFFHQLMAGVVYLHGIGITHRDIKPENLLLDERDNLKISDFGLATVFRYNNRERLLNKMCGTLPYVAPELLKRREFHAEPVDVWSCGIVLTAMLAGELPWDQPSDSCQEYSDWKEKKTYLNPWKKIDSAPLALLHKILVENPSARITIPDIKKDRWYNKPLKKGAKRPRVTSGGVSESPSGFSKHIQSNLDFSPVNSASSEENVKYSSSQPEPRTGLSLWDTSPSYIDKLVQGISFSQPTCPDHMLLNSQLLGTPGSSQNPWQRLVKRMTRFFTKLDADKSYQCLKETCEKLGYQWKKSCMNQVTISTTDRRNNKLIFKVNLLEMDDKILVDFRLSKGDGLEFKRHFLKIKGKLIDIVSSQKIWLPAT

CC1=C(CO)C(=O)O[C@@H]([C@@H](C)[C@H]2CC[C@H]3[C@@H]4C[C@H]5O[C@]56[C@@H](O)C=CC(=O)[C@]6(C)C4CC[C@]23C)C1 (stereo not given in full)
residual activity ([1]; compound 0.1 µM): 92%
residual activity ([1]; compound 1.0 µM): 72%
residual activity ([1]; compound 10.0 µM): 10%
residual activity (AURKA (human); compound 0.1 µM): 108%
residual activity (AURKA (human); compound 1.0 µM): 102%
residual activity (AURKA (human); compound 10.0 µM): 30%
residual activity (AURKB (human); compound 0.1 µM): 108%
residual activity (AURKB (human); compound 1.0 µM): 86%
residual activity (AURKB (human); compound 10.0 µM): 10%
residual activity (CHEK1 (human); compound 0.1 µM): 109%
residual activity (CHEK1 (human); compound 1.0 µM): 114%
residual activity (CHEK1 (human); compound 10.0 µM): 117%
residual activity (CSNK1D (human); compound 0.1 µM): 92%
residual activity (CSNK1D (human); compound 1.0 µM): 103%
residual activity (CSNK1D (human); compound 10.0 µM): 105%
residual activity (EEF2K (human); compound 0.1 µM): 104%
residual activity (EEF2K (human); compound 1.0 µM): 100%
residual activity (EEF2K (human); compound 10.0 µM): 97%
residual activity (EPHB1 (human); compound 0.1 µM): 105%
residual activity (EPHB1 (human); compound 1.0 µM): 101%
residual activity (EPHB1 (human); compound 10.0 µM): 107%
residual activity (EPHB4 (human); compound 0.1 µM): 120%
residual activity (EPHB4 (human); compound 1.0 µM): 119%
residual activity (EPHB4 (human); compound 10.0 µM): 105%
residual activity (FGFR1 (human); compound 0.1 µM): 98%
residual activity (FGFR1 (human); compound 1.0 µM): 97%
residual activity (FGFR1 (human); compound 10.0 µM): 94%
residual activity (FLT1 (human); compound 0.1 µM): 120%
residual activity (FLT1 (human); compound 10.0 µM): 30%
residual activity (GCK (human); compound 0.1 µM): 98%
residual activity (GCK (human); compound 1.0 µM): 106%
residual activity (GCK (human); compound 10.0 µM): 68%
residual activity (GSK3B (human); compound 0.1 µM): 114%
residual activity (GSK3B (human); compound 1.0 µM): 124%
residual activity (GSK3B (human); compound 10.0 µM): 127%
residual activity (HIPK1 (human); compound 0.1 µM): 110%
residual activity (HIPK1 (human); compound 1.0 µM): 112%
residual activity (HIPK1 (human); compound 10.0 µM): 101%
residual activity (HIPK2 (human); compound 0.1 µM): 108%
residual activity (HIPK2 (human); compound 1.0 µM): 113%
residual activity (HIPK2 (human); compound 10.0 µM): 60%
residual activity (IGF1R (human); compound 0.1 µM): 105%
residual activity (IGF1R (human); compound 1.0 µM): 123%
residual activity (IGF1R (human); compound 10.0 µM): 113%
residual activity (MAP2K2 (human); compound 0.1 µM): 108%
residual activity (MAP2K2 (human); compound 10.0 µM): 120%
residual activity (MAP3K1 (human); compound 0.1 µM): 112%
residual activity (MAP3K1 (human); compound 1.0 µM): 115%
residual activity (MAP3K1 (human); compound 10.0 µM): 95%
residual activity (MAP3K5 (human); compound 0.1 µM): 104%
residual activity (MAP3K5 (human); compound 1.0 µM): 100%
residual activity (MAP3K9 (human); compound 0.1 µM): 91%
residual activity (MAP3K9 (human); compound 1.0 µM): 100%
residual activity (MAP3K9 (human); compound 10.0 µM): 86%
residual activity (MAPK1 (human)): 111%
residual activity (MAPK10 (human); compound 0.1 µM): 122%
residual activity (MAPK10 (human); compound 1.0 µM): 125%
residual activity (MAPK10 (human); compound 10.0 µM): 136%
residual activity (MAPK13 (human); compound 0.1 µM): 106%
residual activity (MAPK13 (human); compound 1.0 µM): 110%
residual activity (MAPK13 (human); compound 10.0 µM): 92%
residual activity (MAPK9 (human); compound 0.1 µM): 112%
residual activity (MAPK9 (human); compound 1.0 µM): 114%
residual activity (MAPK9 (human); compound 10.0 µM): 119%
residual activity (MARK4 (human); compound 0.1 µM): 87%
residual activity (MARK4 (human); compound 1.0 µM): 97%
residual activity (MARK4 (human); compound 10.0 µM): 77%
residual activity (MELK (human); compound 0.1 µM): 98%
residual activity (MELK (human); compound 1.0 µM): 107%
residual activity (MELK (human); compound 10.0 µM): 123%
residual activity (MYLK (human); compound 0.1 µM): 113%
residual activity (MYLK (human); compound 1.0 µM): 114%
residual activity (MYLK (human); compound 10.0 µM): 114%
residual activity ([2]; compound 0.1 µM): 100%
residual activity ([2]; compound 1.0 µM): 96%
residual activity ([2]; compound 10.0 µM): 86%
residual activity (PAK6 (human); compound 0.1 µM): 125%
residual activity (PAK6 (human); compound 1.0 µM): 126%
residual activity (PAK6 (human); compound 10.0 µM): 105%
residual activity (PKN2 (human); compound 0.1 µM): 103%
residual activity (PKN2 (human); compound 1.0 µM): 95%
residual activity (PKN2 (human); compound 10.0 µM): 104%
residual activity (PRKCZ (human); compound 0.1 µM): 103%
residual activity (PRKCZ (human); compound 1.0 µM): 110%
residual activity (PRKCZ (human); compound 10.0 µM): 101%
residual activity (SRC (human); compound 0.1 µM): 114%
residual activity (SRC (human); compound 1.0 µM): 113%
residual activity ([3]; compound 0.1 µM): 104%
residual activity ([3]; compound 1.0 µM): 111%
residual activity ([3]; compound 10.0 µM): 114%
residual activity (SYK (human); compound 1.0 µM): 115%
residual activity (SYK (human); compound 10.0 µM): 130%
residual activity (TAOK1 (human); compound 0.1 µM): 103%
residual activity (TAOK1 (human); compound 1.0 µM): 113%
residual activity (TAOK1 (human); compound 10.0 µM): 120%
residual activity (TTK (human); compound 0.1 µM): 111%
residual activity (TTK (human); compound 1.0 µM): 112%
residual activity (TTK (human); compound 10.0 µM): 94%
residual activity (YES1 (human); compound 0.1 µM): 99%
residual activity (YES1 (human); compound 1.0 µM): 112%
